These results are taken from patent US7560458B2, “Triazolopyrimidine derivatives as glycogen synthase kinase 3 inhibitors” (Janssen Pharmaceutica, N.V., priority 2003, dated 2009).

One test addresses GSK3alpha (Homo sapiens, UniProt P49840). The test is described as follows: GSK3alpha assay (same as the GSK3beta assay, GSK3alpha 0.25 ng/μl). The test is classed as biochemical. To be noted: −log IC50 (M); given as ranges (>8; 7-8; <7); read-out: pIC50 (GSK3alpha) (converted). In short, it runs like this:
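GSK3α at 0.25 ng/μl phosphorylated 5 μM biotinylated phospho-CREB peptide with 1 μM ATP and 33P-ATP for 1 h at room temperature, in 25 mM Tris pH 7.4 with 10 mM MgCl2 and 1 mM DTT. Phosphorylated peptide was captured on streptavidin SPA beads and counted. IC50 was taken from dose-response curves.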

A further test has as its target GSK3β (Homo sapiens, UniProt P49841). The test is described as follows: GSK3beta assay (SPA, biotinylated phosphorylated CREB peptide, ATP-P33). The test is classed as biochemical. The following applies: −log IC50 (M); given as ranges (>8; 7-8; <7); read-out: pIC50 (GSK3beta) (converted). In outline:
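Radiometric SPA at room temperature, pH 7.4 Tris/MgCl2/DTT/BSA/glycerol, with 5.7 ng/μl GSK3β, 5 μM biotinylated phospho-CREB peptide, 1 μM ATP plus 33P-ATP for 1 h. Stopped with streptavidin SPA beads, counted after overnight settling; % inhibition versus no-compound control, IC50 from dose-response curve.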

Molecules are shown by their SMILES. Some results are limits rather than exact numbers.

GSK3alpha, sequence (P49840 whole entry, species assumed): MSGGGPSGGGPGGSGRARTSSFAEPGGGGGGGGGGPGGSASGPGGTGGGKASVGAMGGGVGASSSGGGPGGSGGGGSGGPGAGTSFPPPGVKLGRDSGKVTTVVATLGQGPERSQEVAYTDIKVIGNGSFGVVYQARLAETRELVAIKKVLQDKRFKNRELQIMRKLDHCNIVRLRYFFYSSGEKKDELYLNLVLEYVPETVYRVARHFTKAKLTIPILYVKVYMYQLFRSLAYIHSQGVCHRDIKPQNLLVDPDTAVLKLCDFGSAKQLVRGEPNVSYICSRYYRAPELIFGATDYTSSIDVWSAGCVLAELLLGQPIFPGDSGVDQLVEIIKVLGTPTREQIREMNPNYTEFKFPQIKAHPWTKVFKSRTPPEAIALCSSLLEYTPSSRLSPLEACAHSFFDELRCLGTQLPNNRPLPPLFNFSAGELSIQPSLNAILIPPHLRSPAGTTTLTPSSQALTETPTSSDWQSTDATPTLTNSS
GSK3β, sequence (P49841 whole entry, species assumed): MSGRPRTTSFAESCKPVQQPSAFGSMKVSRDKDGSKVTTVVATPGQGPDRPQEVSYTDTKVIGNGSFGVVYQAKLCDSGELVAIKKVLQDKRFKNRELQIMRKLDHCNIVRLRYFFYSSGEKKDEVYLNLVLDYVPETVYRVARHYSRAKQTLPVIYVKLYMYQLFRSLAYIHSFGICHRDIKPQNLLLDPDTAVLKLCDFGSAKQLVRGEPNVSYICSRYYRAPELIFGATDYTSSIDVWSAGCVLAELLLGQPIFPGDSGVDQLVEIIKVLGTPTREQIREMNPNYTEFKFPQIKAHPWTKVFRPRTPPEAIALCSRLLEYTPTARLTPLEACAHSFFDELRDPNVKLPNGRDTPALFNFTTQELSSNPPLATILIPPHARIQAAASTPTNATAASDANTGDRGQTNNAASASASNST

In the case of `NS(=O)(=O)c1ccc(Nc2ncc3nnn(-c4cccc(CNC(=O)C5CC5)c4)c3n2)cc1` [Compound 210], the IC50 on GSK3alpha and on GSK3β was below 1e-08 M throughout.

Take `COc1cccc(-n2nnc3cnc(Nc4ccc(O)c(C(=O)O)c4)nc32)c1` [Compound 72]: the values for the IC50 at GSK3alpha and at GSK3β were below 1e-08 M and 1e-08 to 1e-07 M, respectively.

Take `O=C(O)c1ccc(Nc2ncc3nnn(-c4cccc(CNC(=O)C5CC5)c4)c3n2)cc1` [Compound 206]: the IC50 at GSK3alpha and on GSK3β was below 1e-08 M in each case.

As for `N#CCc1cccc(-n2nnc3cnc(Nc4ccc(F)cc4)nc32)c1` [Compound 265], the IC50 on GSK3alpha and on GSK3β was below 1e-08 M each time.

For the compound `COCCOc1cccc(-n2nnc3cnc(Nc4cccc(CNC(=O)OC(C)(C)C)c4)nc32)c1` [Compound 303], the IC50 is below 1e-08 M at GSK3alpha and 1e-08 to 1e-07 M at GSK3β.

For the compound `CCOC(=O)NCc1cccc(-n2nnc3cnc(Nc4cccc(NS(C)(=O)=O)c4)nc32)c1` [Compound 217], the IC50 at GSK3alpha and on GSK3β was below 1e-08 M throughout.

For `COCc1cccc(-n2nnc3cnc(Nc4cccc(S(=O)(=O)NCCO)c4)nc32)c1` [Compound 142], the IC50 on GSK3alpha and on GSK3β was below 1e-08 M each time.

`CC(=O)Nc1ccc(Nc2ncc3nnn(-c4cccc(F)c4)c3n2)cn1` [Compound 87]: the values for the IC50 at GSK3alpha and on GSK3β were below 1e-08 M and 1e-08 to 1e-07 M, respectively.

Take `NC(=O)Cc1cccc(-n2nnc3cnc(Nc4ccc(F)cc4)nc32)c1` [Compound 254]: the IC50 at GSK3alpha and on GSK3β was below 1e-08 M each time.

Take `NCc1cccc(Nc2ncc3nnn(-c4ccccc4)c3n2)c1` [Compound 78]: the IC50 at GSK3alpha and on GSK3β was 1e-08 to 1e-07 M in each case.

`COc1ccc(Nc2ncc3nnn(-c4cccc(CC#N)c4)c3n2)cn1` [Compound 267]: the IC50 at GSK3alpha and at GSK3β was below 1e-08 M throughout.

Turning to `CN(C)C(=O)c1ccc(Nc2ncc3nnn(-c4cccc(F)c4)c3n2)cc1` [Compound 309], the IC50 at GSK3alpha and on GSK3β was below 1e-08 M in each case.

Consider `O=C(O)CNC(=O)c1ccc(Nc2ncc3nnn(-c4cccc(CNC(=O)C56CC7CC(CC(C7)C5)C6)c4)c3n2)cc1` [Compound 238], for which the IC50 at GSK3alpha and on GSK3β was below 1e-08 M throughout.

Turning to `N#CCc1cccc(-n2nnc3cnc(Nc4cccc(C#N)c4)nc32)c1` [Compound 272], the IC50 on GSK3alpha and at GSK3β was below 1e-08 M throughout.

Consider `NCCc1ccc(Nc2ncc3nnn(-c4cccc(F)c4)c3n2)cc1` [Compound 321], for which the IC50 at GSK3alpha and on GSK3β was 1e-08 to 1e-07 M in each case.

With `COC(=O)c1cc(Nc2ncc3nnn(-c4cccc(CC#N)c4)c3n2)ccc1NC(C)=O` [Compound 269], the IC50 on GSK3alpha and on GSK3β was below 1e-08 M throughout.

Consider `CC(=O)Nc1cccc(Nc2ncc3nnn(-c4ccccc4)c3n2)c1` [Compound 59], for which the IC50 on GSK3alpha and on GSK3β was below 1e-08 M in each case.

In the case of `Cc1ccc(Nc2ncc3nnn(-c4cccc(F)c4)c3n2)cc1O` [Compound 21], the IC50 at GSK3alpha and at GSK3β was below 1e-08 M in each case.

As to `CNC(=O)c1ccc(Nc2ncc3nnn(-c4cccc(OCCOC)c4)c3n2)cc1` [Compound 325], the IC50 on GSK3alpha is below 1e-08 M; at GSK3β it was 1e-08 to 1e-07 M.

As to `O=C(O)Cc1ccc(Nc2ncc3nnn(-c4cccc(CNC(=O)C56CC7CC(CC(C7)C5)C6)c4)c3n2)cc1` [Compound 240], the IC50 at GSK3alpha and on GSK3β was 1e-08 to 1e-07 M in each case.

As for `COc1cccc(-n2nnc3cnc(Nc4cccc(S(C)(=O)=O)c4)nc32)c1` [Compound 53], the IC50 on GSK3alpha and at GSK3β was below 1e-08 M in each case.

In the case of `CNC(=O)c1ccc(Nc2ncc3nnn(-c4cccc(COCCOC)c4)c3n2)cc1` [Compound 327], the IC50 at GSK3alpha and at GSK3β was below 1e-08 M in each case.

In the case of `COCCOc1cccc(-n2nnc3cnc(Nc4ccc(CN)cc4)nc32)c1` [Compound 305], the IC50 at GSK3alpha is below 1e-08 M; on GSK3β it was 1e-08 to 1e-07 M.

For the compound `COCc1cccc(Nc2ncc3nnn(-c4cccc(CNC(=O)CC(C)C)c4)c3n2)c1` [Compound 188], the IC50 at GSK3alpha and at GSK3β was below 1e-08 M throughout.

On to `CS(=O)(=O)Nc1cccc(Nc2ncc3nnn(-c4cccc(CO)c4)c3n2)c1` [Compound 62], for which the IC50 on GSK3alpha and on GSK3β was below 1e-08 M each time.

Regarding `CNC(=O)c1ccc(Nc2ncc3nnn(-c4cccc(COC)c4)c3n2)cc1` [Compound 333], the IC50 on GSK3alpha and at GSK3β was below 1e-08 M in each case.

For `NC(=O)c1cccc(-n2nnc3cnc(Nc4ccc(C(=O)O)cc4)nc32)c1` [Compound 228], the IC50 on GSK3alpha and at GSK3β was below 1e-08 M in each case.

As to `NC(=O)c1ccc(Nc2ncc3nnn(-c4cccc(CCO)c4)c3n2)cc1` [Compound 259], the IC50 on GSK3alpha and at GSK3β was below 1e-08 M in each case.

Turning to `OCCc1cccc(-n2nnc3cnc(Nc4ccc(F)cc4)nc32)c1` [Compound 261], the IC50 at GSK3alpha and on GSK3β was below 1e-08 M in each case.

In the case of `N#Cc1cccc(Nc2ncc3nnn(-c4cccc(CCO)c4)c3n2)c1` [Compound 258], the IC50 on GSK3alpha and on GSK3β was below 1e-08 M in each case.

In the case of `COCc1cccc(-n2nnc3cnc(Nc4cccc(C(=O)NCCNC(C)=O)c4)nc32)c1` [Compound 149], the figures for the IC50 on GSK3alpha and on GSK3β were below 1e-08 M and 1e-08 to 1e-07 M, respectively.

With `N#Cc1ccc(Nc2ncc3nnn(-c4cccc(CNC(=O)C5CC5)c4)c3n2)cc1` [Compound 203], the IC50 is below 1e-08 M at GSK3alpha and 1e-08 to 1e-07 M at GSK3β.

As for `CCOC(=O)NCc1cccc(-n2nnc3cnc(Nc4cccc(COC)c4)nc32)c1` [Compound 216], the IC50 on GSK3alpha and on GSK3β was below 1e-08 M in each case.

As to `CCOc1ccc(Nc2ncc3nnn(-c4ccccc4)c3n2)cn1` [Compound 82], the IC50 at GSK3alpha is below 1e-08 M; at GSK3β it was 1e-08 to 1e-07 M.

On to `NC(=O)c1ccc(Nc2ncc3nnn(-c4cccc(F)c4)c3n2)cc1` [Compound 307], for which the IC50 at GSK3alpha and on GSK3β was below 1e-08 M throughout.

Take `NCCc1ccc(Nc2ncc3nnn(-c4cccc(CCO)c4)c3n2)cc1` [Compound 316]: the IC50 at GSK3alpha and on GSK3β was below 1e-08 M each time.

Turning to `COC(=O)c1cc(Nc2ncc3nnn(-c4cccc(F)c4)c3n2)ccc1N` [Compound 134], the IC50 at GSK3alpha and on GSK3β was below 1e-08 M throughout.

As to `CC(=O)NCc1cccc(-n2nnc3cnc(Nc4ccc(S(N)(=O)=O)cc4)nc32)c1` [Compound 248], the IC50 at GSK3alpha and at GSK3β was below 1e-08 M in each case.

With `CC(C)CC(=O)NCc1cccc(-n2nnc3cnc(Nc4cccc(C#N)c4)nc32)c1` [Compound 185], the IC50 at GSK3alpha and on GSK3β was below 1e-08 M throughout.

Consider `CC(=O)NCc1cccc(-n2nnc3cnc(Nc4cccc(NC(C)=O)c4)nc32)c1` [Compound 109], for which the IC50 at GSK3alpha and at GSK3β was below 1e-08 M throughout.

Take `COCc1cccc(-n2nnc3cnc(Nc4cccc(CNC(C)=O)c4)nc32)c1` [Compound 80]: the IC50 at GSK3alpha and on GSK3β was below 1e-08 M each time.

In the case of `CC(=O)NCc1cccc(-n2nnc3cnc(Nc4cccc(NS(C)(=O)=O)c4)nc32)c1` [Compound 99], the IC50 on GSK3alpha and at GSK3β was below 1e-08 M in each case.

Consider `CC(=O)NCc1cccc(Nc2ncc3nnn(-c4cccc(CNC(C)=O)c4)c3n2)c1` [Compound 108], for which the IC50 at GSK3alpha and at GSK3β was below 1e-08 M throughout.

For `COCc1cccc(-n2nnc3cnc(Nc4ccc(CCO)cc4)nc32)c1` [Compound 139], the IC50 on GSK3alpha and on GSK3β was below 1e-08 M each time.

As for `O=C(NCCO)c1cccc(Nc2ncc3nnn(-c4cccc(F)c4)c3n2)c1` [Compound 101], the IC50 at GSK3alpha and at GSK3β was below 1e-08 M each time.

As to `NC(=O)c1ccc(Nc2ncc3nnn(-c4cccc(CNC(=O)C56CC7CC(CC(C7)C5)C6)c4)c3n2)cc1` [Compound 237], the IC50 on GSK3alpha was 1e-08 M; on GSK3β, 1e-08 to 1e-07 M.

As to `O=C(O)c1ccc(Nc2ncc3nnn(-c4cccc(Br)c4)c3n2)cc1` [Compound 124], the IC50 on GSK3alpha and on GSK3β was below 1e-08 M throughout.

`Fc1cccc(-n2nnc3cnc(Nc4ccc(OC(F)F)cc4)nc32)c1` [Compound 19]: the IC50 was below 1e-08 M at GSK3alpha and 1e-08 to 1e-07 M at GSK3β.

On to `CN(C)C(=O)c1cccc(Nc2ncc3nnn(-c4cccc(F)c4)c3n2)c1` [Compound 100], for which the IC50 on GSK3alpha and on GSK3β was below 1e-08 M each time.

In the case of `CNC(=O)c1ccc(Nc2ncc3nnn(-c4cccc(CC#N)c4)c3n2)cc1` [Compound 331], the IC50 at GSK3alpha and on GSK3β was 1e-08 to 1e-07 M throughout.

With `NS(=O)(=O)c1ccc(Nc2ncc3nnn(-c4cccc(CCO)c4)c3n2)cc1` [Compound 169], the IC50 at GSK3alpha and at GSK3β was below 1e-08 M throughout.

In the case of `NC(=O)c1cccc(Nc2ncc3nnn(-c4ccccc4)c3n2)c1` [Compound 38], the IC50 at GSK3alpha and at GSK3β was below 1e-08 M throughout.

Consider `N#Cc1cccc(Nc2ncc3nnn(-c4cccc(Br)c4)c3n2)c1` [Compound 33], for which the IC50 on GSK3alpha and at GSK3β was below 1e-08 M in each case.

For the compound `O=C(NCc1cccc(-n2nnc3cnc(Nc4ccc(CCO)cc4)nc32)c1)C12CC3CC(CC(C3)C1)C2` [Compound 241], the IC50 at GSK3alpha and at GSK3β was 1e-08 to 1e-07 M throughout.

In the case of `N#Cc1ccc(Nc2ncc3nnn(-c4cccc(CCO)c4)c3n2)cc1` [Compound 285], the IC50 on GSK3alpha and on GSK3β was below 1e-08 M each time.
